Earlier results in patent US20080008772A1, “Narcotic biphasic release compositions and methods for treatment of coughing, sneezing, rhinorrhea, and/or nasal obstruction” (Everett Laboratories, Inc., priority 2006, published 2008).

Key:
[1] = in vivo

For `COc1ccccc1OCC(O)CO` (centres unmarked) [Guaifenesin, 3-(2-methoxyphenoxy)-1,2 propanediol], which plasma half life [1] is on record?
The plasma half life was “one”.

Which sedative action (at equi-effective doses, versus codeine) does the source give for `COc1ccc2c3c1O[C@H]1C(=O)CC[C@H]4[C@@H](C2)N(C)CC[C@]314.COc1ccc2c3c1O[C@H]1C(=O)CC[C@H]4[C@@H](C2)N(C)CC[C@]314.O.O.O.O.O.O=C(O)C(O)C(O)C(=O)O.O=C(O)C(O)C(O)C(=O)O` [Hydrocodone bitartrate, 4,5a-epoxy-3-methoxy-17-methylmorphinan-6-one tartrate (1:1)hydrate (2:5)] here?
The sedative action was “greater than codeine”.

For `COc1ccc2c3c1O[C@H]1C(=O)CC[C@H]4[C@@H](C2)N(C)CC[C@]314` [hydrocodone, 4,5α-epoxy-3-methoxy-17-methylmorphinan-6-one], which analgesic effects (at therapeutic antitussive doses) is on record?
Its analgesic effects is “does exert analgesic effects”.

What about the “effects on the cardiovascular system” value (therapeutic doses) of the same compound?
Its value is “insignificant”.

And the constipation effects (versus morphine and codeine)?
Its constipation effects is “much weaker than that of morphine and no stronger than that of codeine”.
